Source: patent publication EP4563571A1, “PRMT5 INHIBITORS” (Beijing Earthwise Technology Co., Ltd., priority 2022, dated 2024)

test system: HCT116^MTAP Deletion cells; assay: Anti-proliferation assay on cells (Cell-Titer Glo, 10 days); type: cell-based; conditions: HCT116^MTAP Deletion cells, 10 days incubation, CTG readout; read-out: HCT116^MTAP Deletion GI50
Description: HCT116^MTAP Deletion cells were from Pharmaron (China); HCT116 cells were from ATCC; McCoy's 5A medium was purchased from Invitrogen (USA); penicillin-streptomycin and fetal bovine serum were purchased from Gibco (USA); a 384-well plate was purchased from PerkinElmer (USA); and Cell-Titer Glo reagent was purchased from Promega (USA).
Compound dissolution: All the compounds were dissolved in dimethyl sulfoxide (DMSO) and then stored. The compounds were stored at room temperature in a dry condition for 3 months for short term storage or at -20 °C for long term storage.
Cell culture and passaging
The cells were cultured strictly in accordance with ATCC requirements. The cell culture medium (McCoy's 5A medium + 10% fetal bovine serum + 1% penicillin + streptomycin) was transferred to a 15 mL centrifuge tube and centrifuged at 1000 rpm for 5 min. The supernatant was removed. The cells were resuspended with complete culture medium, inoculated into a culture dish at the required density, and cultured in an incubator at 37 °C, 95% humid air, and 5% carbon dioxide. The culture medium was replenished or the cells were passaged every 2-3 days depending on the cell growth condition.
Cell proliferation activity assay
When the confluency of cells in the culture dish reached about 90%, the cells were washed twice with PBS, and then treated with trypsin to become single cells. The cells were counted, and 40µl of the cells was inoculated into each well of a 384-well plate (50 cells/well). The plate was equilibrated at 37 °C and 5% carbon dioxide for 10 to 15 minutes. The compounds were injected into the 384-well plate using Echo550, and positive control and negative control (0.1% DMSO) were set up. Each compound was subjected to a 3-fold dilution, resulting in 10 concentration gradients, in duplicate, and the content of DMSO was 0.1%. The 384-well plate was incubated in a cell culture incubator for 10 days.
Then, 40 µl of cell proliferation assay reagent (CTG) was added to the 384-well plate, and the plate was shaken to mix well. Then, the 384-well plate was incubated at 37 °C and 5% carbon dioxide in the dark for 30 minutes. The data were read using the Envision multifunctional microplate reader. […] According to the different drug concentrations and their corresponding inhibition rates, the GI50 curve was drawn using GraphPad 8.0 software. The data were analyzed, and the final IC50 value was obtained.

GI50 [nM] | Structure (SMILES)
10 to 100 | CCC(C)N(Cc1ccc(C(F)(F)F)cn1)C(=O)C(=O)Nc1cnc(N)c2c1cnn2C (racemic) [Example 46-P1]
10 to 100 | CN(C(=O)C(=O)Nc1cnc(N)c2c1cnn2C)C1COCc2c(F)cc(Cl)cc21 (racemic) [compound 155]
100 to 1000 | Cc1cc(NC(=O)C(=O)N(C)C2COCc3cc(C4=CCOCC4)ccc32)cnc1N (racemic) [compound 162]
< 10 | CN(C(=O)C(=O)Nc1cnc(N)c2c1cnn2C)C1COCc2c1ccc(Cl)c2Cl (racemic) [compound 168]
10 to 100 | CN(C(=O)C(=O)Nc1cnc(N)c2c1cnn2C)C1COc2cc(F)c(F)cc21 (racemic) [compound 172]
< 10 | CN(C(=O)C(=O)Nc1cnc(N)c2c1cnn2C)C1COCc2cc(C3=CCC(F)(F)CC3)ccc21 (racemic) [compound 174]
< 10 | CN(C(=O)C(=O)Nc1cnc(N)c2c1cnn2C)C1COc2cc(Br)ccc21 (racemic) [compound 180]
< 10 | Cc1ncc(-c2ccc3c(c2)COCC3N(C)C(=O)C(=O)Nc2cnc(N)c3c2cnn3C)s1 (racemic) [compound 181]
< 10 | CN(C(=O)C(=O)Nc1cnc(N)c2c1cnn2C)C1COCc2cc(Br)ccc21 (racemic) [compound 182]
< 10 | CN(C(=O)C(=O)Nc1cnc(N)c2c1cnn2C)C1COc2cc(Cl)c(Cl)cc21 (racemic) [compound 186]
< 10 | CN(C(=O)C(=O)Nc1cnc(N)c2c1cnn2C)C1COc2cc(-c3ccnn3C)ccc21 (racemic) [compound 192]
< 10 | Cc1ncc(-c2ccc3c(n2)COCC3N(C)C(=O)C(=O)Nc2cnc(N)c3c2cnn3C)s1 (racemic) [compound 209]
< 10 | CN(C(=O)C(=O)Nc1cnc(N)c2c1cnn2C)C1COCc2cc(-c3cnn(C4CC4)c3)ccc21 (racemic) [compound 223]
< 10 | CN(C(=O)C(=O)Nc1cnc(N)c2c1cnn2C)C1COCc2cc(-c3cnn(C(F)(F)F)c3)ccc21 (racemic) [compound 231]
10 to 100 | CCC(C)N(Cc1ccc(C(F)(F)F)cn1)C(=O)C(=O)Nc1cnc(OC)c(C(N)=O)c1 (single isomer, unassigned) [Example 5-P1]
10 to 100 | CCC(C)N(Cc1ccc(C(F)(F)F)cn1)C(=O)C(=O)Nc1cnc(OC)c(C(N)=O)c1 (single isomer, unassigned) [Example 5-P2]
100 to 1000 | Cc1cc(NC(=O)C(=O)N(Cc2ccc(C(F)(F)F)cn2)C2CCCOC2)cnc1N (single isomer, unassigned) [Example 14-P1]
100 to 1000 | Cc1cc(NC(=O)C(=O)N(Cc2ccc(C(F)(F)F)cn2)C2CCCOC2)cnc1N (single isomer, unassigned) [Example 14-P2]
10 to 100 | Cc1cc(NC(=O)C(=O)N(Cc2ccc(C(F)(F)F)cn2)C(C)c2cscn2)cnc1N (single isomer, unassigned) [Example 19-P1]
10 to 100 | Cc1cc(NC(=O)C(=O)N(Cc2ccc(C(F)(F)F)cn2)C(C)c2cscn2)cnc1N (single isomer, unassigned) [Example 19-P2]
10 to 100 | CCC(C)N(Cc1ccc(C(F)(F)F)cn1)C(=O)C(=O)Nc1cnc(N)c(C)c1 (single isomer, unassigned) [Example 45-P1]
10 to 100 | CCC(C)N(Cc1ccc(C(F)(F)F)cn1)C(=O)C(=O)Nc1cnc(N)c(C)c1 (single isomer, unassigned) [Example 45-P2]
100 to 1000 | CC1OCc2c(NC(=O)C(=O)N(C)C3COCc4cc(C(F)(F)F)ccc43)cnc(N)c21 (single isomer, unassigned) [Example 146-P1]
10 to 100 | CC1OCc2c(NC(=O)C(=O)N(C)C3COCc4cc(C(F)(F)F)ccc43)cnc(N)c21 (single isomer, unassigned) [Example 146-P2]
100 to 1000 | CN(C(=O)C(=O)Nc1cnc(N)c2c1cnn2C)C1COCc2nc(C(F)(F)F)ccc21 (single isomer, unassigned) [Example 152-P1]

GI50 [nM] | Structure (SMILES)
< 10 | CN(C(=O)C(=O)Nc1cnc(N)c2c1cnn2C)C1COc2cc(C3=CCOCC3)ccc21 (single isomer, unassigned) [Example 153-P1]
100 to 1000 | CN(C(=O)C(=O)Nc1cnc(N)c2c1cnn2C)C1COc2cc(C3=CCOCC3)ccc21 (single isomer, unassigned) [Example 153-P2]
1000 to 10000 | Cc1cc(NC(=O)C(=O)N(C)Cc2ccc(C(F)(F)F)cn2)cnc1N [Example 3]
10 to 100 | Cn1ncc2c(NC(=O)C(=O)N(Cc3ccc(C(F)(F)F)cn3)CC3CCC3)cnc(N)c21 [Example 4]
> 10000 | Cc1cc(/C=C/C(=O)N(Cc2ccc(C(F)(F)F)cn2)[C@H](C)c2ncccn2)cnc1N [Example 6]
> 10000 | Cc1cc(C2CC2C(=O)N(Cc2ccc(C(F)(F)F)cn2)[C@H](C)c2ncccn2)cnc1N (some centres unmarked) [Example 7]
10 to 100 | CCC(C)N(Cc1ccc(C(F)(F)F)cn1)C(=O)C(=O)Nc1cnc(N)c2c1COC2C (centres unmarked) [Example 10]
100 to 1000 | Cc1cc(NC(=O)C(=O)N(Cc2ccc(C(F)(F)F)cn2)C2CCCC2)cnc1N [Example 11]
100 to 1000 | Cc1cc(NC(=O)C(=O)N(Cc2ccc(C(F)(F)F)cn2)C2CC2)cnc1N [Example 12]
100 to 1000 | Cc1cc(NC(=O)C(=O)N(Cc2ccc(C(F)(F)F)cn2)C2CCC2)cnc1N [Example 13]
10 to 100 | Cc1cc(NC(=O)C(=O)N(Cc2ccc(C(F)(F)F)cn2)CC2CC2)cnc1N [Example 15]
10 to 100 | Cc1cc(NC(=O)C(=O)N(Cc2ccc(C(F)(F)F)cn2)CC2CCC2)cnc1N [Example 16]
10 to 100 | Cc1cc(NC(=O)C(=O)N(Cc2ccc(C(F)(F)F)cn2)CC2CCCC2)cnc1N [Example 17]
100 to 1000 | Cc1cc(NC(=O)C(=O)N(Cc2ccc(C(F)(F)F)cn2)c2cnn(C)c2)cnc1N [Example 18]
1000 to 10000 | C[C@H](c1ncccn1)N(Cc1ccc(C(F)(F)F)cn1)C(=O)C(=O)Nc1cnc(N)c(F)c1 [Example 22]
1000 to 10000 | C[C@H](c1ncccn1)N(Cc1ccc(C(F)(F)F)cn1)C(=O)C(=O)Nc1cnc(N)c(Cl)c1 [Example 23]
100 to 1000 | C[C@H](c1ncccn1)N(Cc1ccc(C(F)(F)F)cn1)C(=O)C(=O)Nc1cnc(N)c(Br)c1 [Example 24]
10 to 100 | COc1ncc(NC(=O)C(=O)N(Cc2ccc(C(F)(F)F)cn2)[C@H](C)c2ncccn2)cc1C(N)=O [Example 25]
100 to 1000 | Cc1cc(N)ncc1NC(=O)C(=O)N(Cc1ccc(C(F)(F)F)cn1)[C@H](C)c1ncccn1 [Example 26]
100 to 1000 | Cc1nc(NC(=O)C(=O)N(Cc2ccc(C(F)(F)F)cn2)[C@H](C)c2ncccn2)cnc1N [Example 27]
1000 to 10000 | Cc1cc(NC(=O)C(=O)N(Cc2ccc(C#N)cn2)[C@H](C)c2ncccn2)cnc1N [Example 28]
100 to 1000 | Cc1cc(NC(=O)C(=O)N(Cc2ccc(N3CCC(F)(F)C3)cn2)[C@H](C)c2ncccn2)cnc1N [Example 29]
10 to 100 | C[C@H](c1ncccn1)N(Cc1ccc(C(F)(F)F)cn1)C(=O)C(=O)Nc1cnc(N)c2c1cnn2C [Example 30]
100 to 1000 | C[C@H](c1ncccn1)N(Cc1ccc(C(F)(F)F)cn1)C(=O)C(=O)Nc1cnc(N)c2c1CCCC2 [Example 31]
100 to 1000 | C[C@H](c1ncccn1)N(Cc1ccc(C(F)(F)F)cn1)C(=O)C(=O)Nc1cnc(N)c2ccncc12 [Example 32]
